{"source": "patent US20260285850A1", "about": "“SUBSTITUTED OXAZOLIDINONES AND IMIDAZOLINONES AS HERBICIDES” (FMC CORPORATION, priority 2023, published 2026)", "assay_type_in_all_cases": "in vivo", "key": {"[1]": {"tested_on": "barnyardgrass (Echinochloa crus-galli)", "assay": "Test A preemergence soil spray, visual injury rating 0-100", "settings": "10 days, 0 = no effect, 100 = complete control", "procedure,_shortened": "(§1)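 Preemergence directed soil spray or postemergence spray (2-10 cm, 1-2 leaf); loam/sand mix; compound in non-phytotoxic solvent + surfactant. Greenhouse, 10 d. Visual injury vs untreated, 0 = none, 100 = complete control.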"}, "[2]": {"tested_on": "blackgrass (Alopecurus myosuroides)", "assay": "Test A preemergence soil spray, visual injury rating 0-100", "settings": "10 days, 0 = no effect, 100 = complete control", "procedure,_shortened": "as §1"}, "corn (Zea mays) [3]": {"tested_on": "corn (Zea mays)", "assay": "Test A preemergence soil spray, visual injury rating 0-100", "settings": "10 days, 0 = no effect, 100 = complete control", "procedure,_shortened": "as §1"}, "kochia (Bassia scoparia) [4]": {"tested_on": "kochia (Bassia scoparia)", "assay": "Test A preemergence soil spray, visual injury rating 0-100", "settings": "10 days, 0 = no effect, 100 = complete control", "procedure,_shortened": "as §1"}, "[5]": {"tested_on": "oat, wild (wild oat, Avena fatua)", "assay": "Test A preemergence soil spray, visual injury rating 0-100", "settings": "10 days, 0 = no effect, 100 = complete control", "procedure,_shortened": "as §1"}, "[6]": {"tested_on": "palmer (palmer amaranth, palmer pigweed, Amaranthus palmeri)", "assay": "Test A preemergence soil spray, visual injury rating 0-100", "settings": "10 days, 0 = no effect, 100 = complete control", "procedure,_shortened": "as §1"}, "[7]": {"tested_on": "ragweed (common ragweed, Ambrosia artemisiifolia)", "assay": "Test A preemergence soil spray, visual injury rating 0-100", "settings": "10 days, 0 = no effect, 100 = complete control", "procedure,_shortened": "as §1"}, "[8]": {"tested_on": "ryegrass, Italian (italian ryegrass, Lolium multiflorum)", "assay": "Test A preemergence soil spray, visual injury rating 0-100", "settings": "10 days, 0 = no effect, 100 = complete control", "procedure,_shortened": "as §1"}, "soybean (Glycine max) [9]": {"tested_on": "soybean (Glycine max)", "assay": "Test A preemergence soil spray, visual injury rating 0-100", "settings": "10 days, 0 = no effect, 100 = complete control", "procedure,_shortened": "as §1"}, "[10]": {"tested_on": "wheat (Triticum aestivum)", "assay": "Test A preemergence soil spray, visual injury rating 0-100", "settings": "10 days, 0 = no effect, 100 = complete control", "procedure,_shortened": "as §1"}, "[11]": {"tested_on": "barnyardgrass (Echinochloa crus-galli)", "assay": "Test A postemergence application, visual injury rating 0-100", "settings": "10 days", "procedure,_shortened": "as §1"}, "[12]": {"tested_on": "blackgrass (Alopecurus myosuroides)", "assay": "Test A postemergence application, visual injury rating 0-100", "settings": "10 days", "procedure,_shortened": "as §1"}, "corn (Zea mays) [13]": {"tested_on": "corn (Zea mays)", "assay": "Test A postemergence application, visual injury rating 0-100", "settings": "10 days", "procedure,_shortened": "as §1"}, "[14]": {"tested_on": "galium (catchweed bedstraw, Galium aparine)", "assay": "Test A postemergence application, visual injury rating 0-100", "settings": "10 days", "procedure,_shortened": "as §1"}, "[15]": {"tested_on": "horseweed (Erigeron canadensis)", "assay": "Test A postemergence application, visual injury rating 0-100", "settings": "10 days", "procedure,_shortened": "as §1"}, "kochia (Bassia scoparia) [16]": {"tested_on": "kochia (Bassia scoparia)", "assay": "Test A postemergence application, visual injury rating 0-100", "settings": "10 days", "procedure,_shortened": "as §1"}, "[17]": {"tested_on": "oat, wild (wild oat, Avena fatua)", "assay": "Test A postemergence application, visual injury rating 0-100", "settings": "10 days", "procedure,_shortened": "as §1"}, "[18]": {"tested_on": "palmer (palmer amaranth, palmer pigweed, Amaranthus palmeri)", "assay": "Test A postemergence application, visual injury rating 0-100", "settings": "10 days", "procedure,_shortened": "as §1"}, "[19]": {"tested_on": "ragweed (common ragweed, Ambrosia artemisiifolia)", "assay": "Test A postemergence application, visual injury rating 0-100", "settings": "10 days", "procedure,_shortened": "as §1"}, "[20]": {"tested_on": "ryegrass, Italian (italian ryegrass, Lolium multiflorum)", "assay": "Test A postemergence application, visual injury rating 0-100", "settings": "10 days", "procedure,_shortened": "as §1"}, "soybean (Glycine max) [21]": {"tested_on": "soybean (Glycine max)", "assay": "Test A postemergence application, visual injury rating 0-100", "settings": "10 days", "procedure,_shortened": "as §1"}, "[22]": {"tested_on": "wheat (Triticum aestivum)", "assay": "Test A postemergence application, visual injury rating 0-100", "settings": "10 days", "procedure,_shortened": "as §1"}, "[23]": {"tested_on": "barnyardgrass (Echinochloa crusgalli)", "assay": "Test B flooded paddy test, visual plant response rating 0-100", "settings": "250 g ai/ha, Flood, applied to paddy water, evaluated after 13 days", "procedure,_shortened": "(§2)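 In this flooded assay, 2-leaf seedlings received compound through the water layer, kept at 3 cm over the soil. Plants were held 13 days in a greenhouse and then visually compared with control pots.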"}, "[24]": {"tested_on": "ducksalad (Heteranthera limosa)", "assay": "Test B flooded paddy test, visual plant response rating 0-100", "settings": "250 g ai/ha, Flood, applied to paddy water, evaluated after 13 days", "procedure,_shortened": "as §2"}, "rice (Oryza sativa)": {"tested_on": "rice (Oryza sativa)", "assay": "Test B flooded paddy test, visual plant response rating 0-100", "settings": "250 g ai/ha, Flood, applied to paddy water, evaluated after 13 days", "procedure,_shortened": "as §2"}, "[25]": {"tested_on": "sedge, umbrella (small-flower umbrella sedge, Cyperus difformis)", "assay": "Test B flooded paddy test, visual plant response rating 0-100", "settings": "250 g ai/ha, Flood, applied to paddy water, evaluated after 13 days", "procedure,_shortened": "as §2"}, "[26]": {"settings": "31 g ai/ha, postemergence, 0 = no effect, 100 = complete control"}, "[27]": {"settings": "Postemergence, 125 g ai/ha, 0 is no effect, 100 is complete control"}}}
{"smiles": "COC(=O)C1=CCC(NC(=O)C2(C)CN(c3cc(Cl)cc(Cl)c3)C(=O)O2)C1", "note": "(stereo not drawn) [Compound 58]", "values": [{"measurement": "Barnyardgrass plant response rating (0-100)", "setting": "[1]; 31 g ai/ha", "result": 80}, {"measurement": "Barnyardgrass plant response rating (0 to 100 scale)", "setting": "[1]; 125 g ai/ha", "result": 90}, {"measurement": "Blackgrass plant response rating (0-100)", "setting": "[2]; 31 g ai/ha", "result": 10}, {"measurement": "Blackgrass plant response rating (0 to 100 scale)", "setting": "[2]; 125 g ai/ha", "result": 30}, {"measurement": "Corn plant response rating (0-100)", "setting": "corn (Zea mays) [3]; 31 g ai/ha", "result": 10}, {"measurement": "Corn plant response rating (0 to 100 scale)", "setting": "corn (Zea mays) [3]; 125 g ai/ha", "result": 60}, {"measurement": "Kochia plant response rating (0-100)", "setting": "kochia (Bassia scoparia) [4]; 31 g ai/ha", "result": 10}, {"measurement": "Kochia plant response rating (0 to 100 scale)", "setting": "kochia (Bassia scoparia) [4]; 125 g ai/ha", "result": 70}, {"measurement": "Oat, Wild plant response rating (0-100)", "setting": "[5]; 31 g ai/ha", "result": 10}, {"measurement": "Oat, Wild plant response rating (0 to 100 scale)", "setting": "[5]; 125 g ai/ha", "result": 30}, {"measurement": "Amaranth, Palmer plant response rating (0-100)", "setting": "[6]; 31 g ai/ha", "result": 80}, {"measurement": "Amaranth, Palmer plant response rating (0 to 100 scale)", "setting": "[6]; 125 g ai/ha", "result": 100}, {"measurement": "Ragweed plant response rating (0-100)", "setting": "[7]; 31 g ai/ha", "result": 0}, {"measurement": "Ragweed plant response rating (0 to 100 scale)", "setting": "[7]; 125 g ai/ha", "result": 30}, {"measurement": "Ryegrass, Italian plant response rating (0-100)", "setting": "[8]; 31 g ai/ha", "result": 60}, {"measurement": "Ryegrass, Italian plant response rating (0 to 100 scale)", "setting": "[8]; 125 g ai/ha", "result": 80}, {"measurement": "Soybean plant response rating (0-100)", "setting": "soybean (Glycine max) [9]; 31 g ai/ha", "result": 20}, {"measurement": "Soybean plant response rating (0 to 100 scale)", "setting": "soybean (Glycine max) [9]; 125 g ai/ha", "result": 50}, {"measurement": "Wheat plant response rating (0-100)", "setting": "[10]; 31 g ai/ha", "result": 20}, {"measurement": "Wheat plant response rating (0 to 100 scale)", "setting": "[10]; 125 g ai/ha", "result": 90}, {"measurement": "Barnyardgrass plant response rating (0-100)", "setting": "[11]; [26]", "result": 90}, {"measurement": "Barnyardgrass plant response rating (0 to 100 scale)", "setting": "[11]; [27]", "result": 90}, {"measurement": "Blackgrass plant response rating (0-100)", "setting": "[12]; [26]", "result": 90}, {"measurement": "Blackgrass plant response rating (0 to 100 scale)", "setting": "[12]; [27]", "result": 100}, {"measurement": "Corn plant response rating (0-100)", "setting": "corn (Zea mays) [13]; [26]", "result": 100}, {"measurement": "Corn plant response rating (0 to 100 scale)", "setting": "corn (Zea mays) [13]; [27]", "result": 100}, {"measurement": "Galium plant response rating (0-100)", "setting": "[14]; [26]", "result": 90}, {"measurement": "Galium plant response rating (0 to 100 scale)", "setting": "[14]; [27]", "result": 90}, {"measurement": "Horseweed plant response rating (0-100)", "setting": "[15]; [26]", "result": 80}, {"measurement": "Horseweed plant response rating (0 to 100 scale)", "setting": "[15]; [27]", "result": 90}, {"measurement": "Kochia plant response rating (0-100)", "setting": "kochia (Bassia scoparia) [16]; [26]", "result": 80}, {"measurement": "Kochia plant response rating (0 to 100 scale)", "setting": "kochia (Bassia scoparia) [16]; [27]", "result": 90}, {"measurement": "Oat, Wild plant response rating (0-100)", "setting": "[17]; [26]", "result": 30}, {"measurement": "Oat, Wild plant response rating (0 to 100 scale)", "setting": "[17]; [27]", "result": 70}, {"measurement": "Amaranth, Palmer plant response rating (0-100)", "setting": "[18]; [26]", "result": 90}, {"measurement": "Amaranth, Palmer / Pigweed, Palmer plant response rating (0 to 100 scale)", "setting": "[18]; [27]", "result": 100}, {"measurement": "Ragweed plant response rating (0-100)", "setting": "[19]; [26]", "result": 30}, {"measurement": "Ragweed plant response rating (0 to 100 scale)", "setting": "[19]; [27]", "result": 70}, {"measurement": "Ryegrass, Italian plant response rating (0-100)", "setting": "[20]; [26]", "result": 90}, {"measurement": "Ryegrass, Italian plant response rating (0 to 100 scale)", "setting": "[20]; [27]", "result": 90}, {"measurement": "Soybean plant response rating (0-100)", "setting": "soybean (Glycine max) [21]; [26]", "result": 90}, {"measurement": "Soybean plant response rating (0 to 100 scale)", "setting": "soybean (Glycine max) [21]; [27]", "result": 90}, {"measurement": "Wheat plant response rating (0-100)", "setting": "[22]; [26]", "result": 60}, {"measurement": "Wheat plant response rating (0 to 100 scale)", "setting": "[22]; [27]", "result": 90}, {"measurement": "Plant response rating, Barnyardgrass (0 to 100 scale, 0 is no effect and 100 is complete control)", "setting": "[23]", "result": 60}, {"measurement": "Plant response rating, Ducksalad (0 to 100 scale, 0 is no effect and 100 is complete control)", "setting": "[24]", "result": 95}, {"measurement": "Plant response rating, Rice (0 to 100 scale, 0 is no effect and 100 is complete control)", "setting": "rice (Oryza sativa)", "result": 70}, {"measurement": "Plant response rating, Sedge, Umbrella (0 to 100 scale, 0 is no effect and 100 is complete control)", "setting": "[25]", "result": 98}]}
